{
  "source": "patent US20140038953A1",
  "about": "“COMPOSITIONS AND METHODS FOR CARDIOVASCULAR DISEASE” (THE GENERAL HOSPITAL CORPORATION, priority 2011, published 2014)",
  "system": "HepG2 cells",
  "assay": "ApoB-100 secretion in HepG2 cells (ELISA)",
  "assay_type": "cell-based, human",
  "conditions": "compound 13 100 nM, atorvastatin 1 nM, ALK3-Fc 400 ng/mL",
  "experimental": "Hepatoma G2 (HepG2) cells and human aortic endothelial cells (HAECs) were purchased from the American type culture collection (Manassas, Va.). HepG2 cells were maintained in Eagle's Minimum Essential Medium (EMEM) supplemented with 10% fetal bovine serum, 100 units/ml of penicillin, 0.1 mg/ml of streptomycin and glutamine. HAECs were cultured in endothelial cell basal medium (EBM 2) supplemented with the EBM2 bullet kit (Lonza, Basel, Switzerland). For experiments, cells were seeded into 6 or 12-well plates (BD Falcon, Franklin Lakes, N.J.) at a concentration of 0.5×10^6 cells per 5 mL of media. HAECs were maintained in EBM 2 with 0.1% FBS without additional growth factors for all experiments. HepG2 cells were grown to 70% confluence before they were incubated in EMEM enriched with 0.1% FBS. ApoB-100 measurements were performed in supernatants from HepG2 that had been incubated in EMEM containing 0.5% bovine serum albumin using a commercially available Human ApoB-100 ELISA kit (Mabtech AB, Nacka Strand, Sweden). BMP2 protein measurements were performed in supernatants from HAECs that had been incubated in EBM2 containing 0.1% FBS using a BMP2 ELISA kit (R&D Systems).",
  "data": [
    {"smiles": "CC(C)c1c(C(=O)Nc2ccccc2)c(-c2ccccc2)c(-c2ccc(F)cc2)n1CC[C@@H](O)C[C@@H](O)CC(=O)O", "note": "[Atorvastatin, atorvastatin, reference compound]", "values": [
      {"measurement": "BMP2-induced ApoB-100 secretion", "setting": "BMP2 100 ng/mL", "result": "did not prevent the induction of ApoB-100 synthesis by BMP2"},
      {"measurement": "basal ApoB-100 secretion (absence of BMP2)", "result": "reduced basal apolipoprotein B100 (ApoB-100) secretion"},
      {"measurement": "basal ApoB-100 secretion (absence of BMP2)", "setting": "listed as atorvastatin", "result": "reduced ApoB-100 production in the absence of BMP2"}
    ]}
  ]
}
